The test system of assay [1] is TNFα. Put plainly: cells. The format is cell-based, human. The following applies: Homo sapiens, Monocyte, LPS-stimulated human monocytes, TNFα content; read-out: EC50 TNF.
Assay [2] has as its target IRAK4 enzyme (Homo sapiens (Human), UniProt Q9NWZ3). Nature of the assay: biochemical. Format: biochemical. The following applies: IRAK4 enzyme, TR-FRET (HTRF), 500 μM ATP.

Bounds are passed on as bounds.

IRAK4 enzyme, sequence (Q9NWZ3 whole entry): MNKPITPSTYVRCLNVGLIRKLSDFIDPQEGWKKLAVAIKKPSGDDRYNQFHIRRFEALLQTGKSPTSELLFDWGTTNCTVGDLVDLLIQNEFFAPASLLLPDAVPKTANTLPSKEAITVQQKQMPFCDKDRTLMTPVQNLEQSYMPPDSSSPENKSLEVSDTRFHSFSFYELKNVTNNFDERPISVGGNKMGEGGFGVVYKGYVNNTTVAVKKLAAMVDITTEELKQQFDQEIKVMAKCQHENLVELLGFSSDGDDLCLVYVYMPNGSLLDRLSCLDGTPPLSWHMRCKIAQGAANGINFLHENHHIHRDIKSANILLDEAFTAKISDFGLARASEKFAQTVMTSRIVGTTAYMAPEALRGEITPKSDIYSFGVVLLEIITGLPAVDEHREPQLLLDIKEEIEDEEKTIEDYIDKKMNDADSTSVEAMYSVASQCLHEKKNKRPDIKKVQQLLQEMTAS

In the case of `N#Cc1cnn2c(-c3cc(NC45CCC(O)(CC4)CC5)c(C(=O)NCC4CCO4)cn3)ccc2c1` (stereo not drawn) [Example 616, 6-(3-cyanopyrrolo[1,2-b]pyridazin-7-yl)-4-((4-hydroxybicyclo[2.2.2]octan-1-yl)amino)-N-(oxetan-2-ylmethyl) nicotinamide], the EC50 in assay [1] was 144 nM. Inhibition in assay [2] was half-maximal at 2 nM (IC50).
For the compound `N#Cc1cnn2c(-c3cc(NC45CCC(O)(CC4)CC5)c(C(=O)NCC4COC4)cn3)ccc2c1` [Example 617, 6-(3-cyanopyrrolo[1,2-b]pyridazin-7-yl)-4-((4-hydroxybicyclo[2.2.2]octan-1-yl)amino)-N-(oxetan-3-ylmethyl) nicotinamide], the EC50 in assay [1] came to 144 nM. For the same compound, half-maximal inhibition in assay [2] (IC50) required 2 nM.
`COC(=O)N[C@]1(C)CC[C@@H](Nc2cc(-c3ccc4cc(C#N)cnn34)ncc2C(=O)NC[C@@H](F)C(C)(C)O)CC1` [Example 618, methyl ((1R,4r)-4-((2-(3-cyanopyrrolo[1,2-b]pyridazin-7-yl)-5-(((R)-2-fluoro-3-hydroxy-3-methylbutyl)carbamoyl)pyridin-4-yl)amino)-1-methylcyclohexyl) carbamate]: the EC50 in assay [1] is 335 nM. Also, the concentration for half-maximal inhibition (IC50) in assay [2] was 4 nM.
In the case of `COC(=O)N[C@]1(C)CC[C@H](Nc2cc(-c3ccc4cc(C#N)cnn34)ncc2C(=O)NC[C@@H](F)C(C)(C)O)CC1` [Example 619, methyl ((1S,4s)-4-((2-(3-cyanopyrrolo[1,2-b]pyridazin-7-yl)-5-(((R)-2-fluoro-3-hydroxy-3-methylbutyl)carbamoyl)pyridin-4-yl)amino)-1-methylcyclohexyl) carbamate], the EC50 in assay [1] is 168 nM. Besides, the IC50 in assay [2] turned out to be 3 nM.
For `COC(=O)N(C)C[C@H]1C[C@H](Nc2cc(-c3ccc4cc(C#N)cnn34)ncc2C(=O)NC[C@@H](F)C(C)(C)O)C1` [Example 620, Methyl (((1R,3r)-3-((2-(3-cyanopyrrolo[1,2-b]pyridazin-7-yl)-5-(((R)-2-fluoro-3-hydroxy-3-methylbutyl)carbamoyl)pyridin-4-yl)amino)cyclobutyl)methyl)(methyl)carbamate], in that order: 54 nM and 1 nM.
For `N#Cc1cnn2c(-c3cc(NC45CCC(O)(CC4)CC5)c(C(=O)NCc4ncco4)cn3)ccc2c1` [Example 621, 6-(3-cyanopyrrolo[1,2-b]pyridazin-7-yl)-4-((4-hydroxybicyclo[2.2.2]octan-1-yl)amino)-N-(oxazol-2-ylmethyl) nicotinamide], in that order: 98 nM and 1 nM.
Consider `CC(C)(O)c1coc(CNC(=O)c2cnc(-c3ccc4cc(C#N)cnn34)cc2NC23CCC(O)(CC2)CC3)n1` [Example 622, 6-(3-cyanopyrrolo[1,2-b]pyridazin-7-yl)-4-((4-hydroxybicyclo[2.2.2]octan-1-yl)amino)-N-((4-(2-hydroxypropan-2-yl)oxazol-2-yl)methyl)nicotinamide], for which the EC50 in assay [1] amounted to 407 nM. This compound gave an IC50 in assay [2] of 2 nM.
Take `C#CCNC(=O)c1cnc(-c2ccc3cc(C#N)cnn23)cc1NC12CCC(O)(CC1)CC2` [Example 623, 6-(3-cyanopyrrolo[1,2-b]pyridazin-7-yl)-4-((4-hydroxybicyclo[2.2.2]octan-1-yl)amino)-N-(prop-2-yn-1-yl) nicotinamide]: in assay [1], the EC50 was found to be 63 nM. For the same compound, the IC50 in assay [2] is under 1 nM.
For `N#Cc1cnn2c(-c3cc(NC45CCC(O)(CC4)CC5)c(C(=O)NCc4ccc[nH]c4=O)cn3)ccc2c1` [Example 624, 6-(3-cyanopyrrolo[1,2-b]pyridazin-7-yl)-4-((4-hydroxybicyclo[2.2.2]octan-1-yl)amino)-N-((2-oxo-1,2-dihydro-pyridin-3-yl)methyl) nicotinamide], in that order: 1640 nM and 3 nM.
For `CC(C)(O)[C@H](F)CNC(=O)c1cnc(-c2ccc3cc(C#N)cnn23)cc1Nc1ccc(-c2cnco2)nc1` [Example 625, (R)-6-(3-cyanopyrrolo[1,2-b]pyridazin-7-yl)-N-(2-fluoro-3-hydroxy-3-methylbutyl)-4-((6-(oxazol-5-yl)pyridin-3-yl)amino)nicotinamide], in assay [1], the EC50 was 22 nM. For the same compound, the IC50 in assay [2] was under 1 nM.
Consider `N#Cc1cnn2c(-c3cc(NC4COC4)c(C(=O)NCC(=O)N4CC(F)(F)C4)cn3)ccc2c1` [Example 626, 6-(3-cyanopyrrolo[1,2-b]pyridazin-7-yl)-N-(2-(3,3-difluoroazetidin-1-yl)-2-oxoethyl)-4-(oxetan-3-ylamino)nicotinamide], for which the EC50 in assay [1] worked out at 79 nM. In assay [2], this compound showed an IC50 of under 1 nM.
For `CC(C)(O)[C@H](F)CNC(=O)c1cnc(-c2ccc3cc(C#N)cnn23)cc1Nc1ccc(-c2nnco2)cc1` [Example 627, (R)-4-((4-(1,3,4-oxadiazol-2-yl)phenyl)amino)-6-(3-cyanopyrrolo[1,2-b]pyridazin-7-yl)-N-(2-fluoro-3-hydroxy-3-methylbutyl)nicotinamide], in that order: 30 nM and under 1 nM.
Regarding `CC(C)(O)[C@H](F)CNC(=O)c1cnc(-c2ccc3cc(C#N)cnn23)cc1Nc1ccc(-c2cocn2)cc1` [Example 628, (R)-6-(3-cyanopyrrolo[1,2-b]pyridazin-7-yl)-N-(2-fluoro-3-hydroxy-3-methyl-butyl)-4-((4-(oxazol-4-yl)phenyl)amino) nicotinamide], the 50% effective concentration (EC50) in assay [1] stood at 26 nM. Also, the concentration for half-maximal inhibition (IC50) in assay [2] was under 1 nM.
For `Cc1ncoc1-c1ccc(Nc2cc(-c3ccc4cc(C#N)cnn34)ncc2C(=O)NC[C@@H](F)C(C)(C)O)cc1` [Example 629, (R)-6-(3-cyanopyrrolo[1,2-b]pyridazin-7-yl)-N-(2-fluoro-3-hydroxy-3-methylbutyl)-4-((4-(4-methyloxazol-5-yl)phenyl)amino)nicotinamide], the EC50 in assay [1] stood at 22 nM. The half-inhibitory concentration (IC50) in assay [2] is under 1 nM.
For `CC(C)(O)[C@H](F)CNC(=O)c1cnc(-c2ccc3cc(C#N)cnn23)cc1N[C@H]1CC[C@H](c2cnco2)CC1` [Example 630, 6-(3-cyanopyrrolo[1,2-b]pyridazin-7-yl)-N-((R)-2-fluoro-3-hydroxy-3-methylbutyl)-4-(((1r,4R)-4-(oxazol-5-yl)cyclohexyl)amino)nicotinamide], in that order: 9 nM and under 1 nM.
For `Cc1ncoc1[C@H]1CC[C@H](Nc2cc(-c3ccc4cc(C#N)cnn34)ncc2C(=O)NC[C@@H](F)C(C)(C)O)CC1` [Example 631, 6-(3-cyanopyrrolo[1,2-b]pyridazin-7-yl)-N-((R)-2-fluoro-3-hydroxy-3-methylbutyl)-4-(((1r,4R)-4-(4-methyloxazol-5-yl)cyclohexyl)amino) nicotinamide], in that order: 21 nM and 2 nM.
With `Cc1ncoc1-c1ccc(Nc2cc(-c3ccc4cc(C#N)cnn34)ncc2C(=O)NC[C@@H](F)C(C)(C)O)cn1` [Example 632, (R)-6-(3-cyanopyrrolo[1,2-b]pyridazin-7-yl)-N-(2-fluoro-3-hydroxy-3-methylbutyl)-4-((6-(4-methyloxazol-5-yl)pyridin-3-yl)amino) nicotinamide], the EC50 in assay [1] worked out at 28 nM. The compound further yielded an IC50 in assay [2] of under 1 nM.
For `CC(C)(O)[C@H](F)CNC(=O)c1cnc(-c2ccc3cc(C#N)cnn23)cc1NC12CCC(c3cnco3)(CC1)OC2` [Example 633, (R)-6-(3-cyanopyrrolo[1,2-b]pyridazin-7-yl)-N-(2-fluoro-3-hydroxy-3-methylbutyl)-4-((1-(oxazol-5-yl)-2-oxabicyclo[2.2.2]octan-4-yl)amino) nicotinamide], in that order: 2 nM and under 1 nM.
Take `Cc1ncoc1C12CCC(Nc3cc(-c4ccc5cc(C#N)cnn45)ncc3C(=O)NC[C@@H](F)C(C)(C)O)(CC1)CO2` [Example 634, (R)-6-(3-cyanopyrrolo[1,2-b]pyridazin-7-yl)-N-(2-fluoro-3-hydroxy-3-methylbutyl)-4-((1-(4-methyloxazol-5-yl)-2-oxabicyclo[2.2.2]octan-4-yl)amino)nicotinamide]: the EC50 in assay [1] was determined as 7 nM. In addition, the IC50 in assay [2] was under 1 nM.
For `CCOc1cc(Nc2cc(-c3ccc4cc(C#N)cnn34)ncc2C(=O)NC[C@@H](F)C(C)(C)O)cnc1-c1cnco1` [Example 635, (R)-6-(3-cyanopyrrolo[1,2-b]pyridazin-7-yl)-4-((5-ethoxy-6-(oxazol-5-yl)pyridin-3-yl)amino)-N-(2-fluoro-3-hydroxy-3-methylbutyl)nicotinamide], in that order: over 10000 nM and 8 nM.
For `CC(C)(O)[C@H](F)CNC(=O)c1cnc(-c2ccc3cc(C#N)cnn23)cc1NC1CC(Cc2cnco2)C1` (stereo partly drawn) [Example 636, (R)-6-(3-cyanopyrrolo[1,2-b]pyridazin-7-yl)-N-(2-fluoro-3-hydroxy-3-methylbutyl)-4-((3-(oxazol-5-ylmethyl)cyclobutyl)amino)nicotinamide], in that order: 33 nM and under 1 nM.
For `CC(C)(O)[C@H](F)CNC(=O)c1cnc(-c2ccc3cc(C#N)cnn23)cc1N[C@H]1CC[C@H](c2nnco2)CC1` [Example 637, 4-(((1r,4R)-4-(1,3,4-oxadiazol-2-yl)cyclohexyl)amino)-6-(3-cyano-pyrrolo[1,2-b]pyridazin-7-yl)-N-((R)-2-fluoro-3-hydroxy-3-methylbutyl) nicotinamide], in assay [1], the EC50 is 21 nM. The same compound had an IC50 in assay [2] of under 1 nM.
Regarding `CC(C)(O)[C@H](F)CNC(=O)c1cnc(-c2ccc3cc(C#N)cnn23)cc1N[C@@H]1CC[C@@H](c2cnco2)OC1` [Example 639, 6-(3-cyanopyrrolo[1,2-b]pyridazin-7-yl)-N-((R)-2-fluoro-3-hydroxy-3-methylbutyl)-4-(((3R,6S)-6-(oxazol-5-yl)tetrahydro-2H-pyran-3-yl)amino)nicotinamide], the EC50 in assay [1] worked out at 43 nM. Also, the IC50 in assay [2] is 1 nM.
For `CC(C)(O)[C@H](F)CNC(=O)c1cnc(-c2ccc3cc(C#N)cnn23)cc1Nc1cnc(-c2cnco2)nc1` [Example 641, (R)-6-(3-cyanopyrrolo[1,2-b]pyridazin-7-yl)-N-(2-fluoro-3-hydroxy-3-methylbutyl)-4-((2-(oxazol-5-yl)pyrimidin-5-yl)amino)nicotinamide], in that order: 21 nM and under 1 nM.

A word on the EC50: it is the concentration giving half of the maximal effect. Broadly, the IC50 is the concentration that inhibits the measured activity by half.

Source of the values: patent US10336762B2 (priority 2017, dated 2019).
